The values that follow come from PubChem BioAssay (NCI).

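The compound was tested at five concentrations on cells cultured in 96-well plates, with a 48-hour exposure period. TGI marks complete inhibition of growth.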 Some results are limits rather than exact numbers.

The first test has as its system M14 melanoma. As to the kind of experiment: DTP human tumour cell line panel, 48 h.
For orientation: TGI means the concentration giving total growth inhibition. Read a high TGI as lower sensitivity of the cells. `CCSc1[nH]c(NC(=S)NC(=O)c2ccccc2Cl)c(C(N)=O)c1C(N)=O` returned a TGI of over 10 µM.
Still for that read-out and setting: with `CCCCNc1nc(C#N)c(N)s1` the figure was over 100 µM.
Consider `Cn1cc2ccccc2c1-c1nc(F)nc(F)n1`, for which the TGI is over 100 µM.
Still for that read-out and setting: the same measure for `COC(=O)N/N=C(\Cc1ccccc1)CN(C)C`: over 100 µM; for `CC1=NN(C(=O)c2ccccc2O)C(=O)/C1=C/c1ccco1`: over 100 µM.
Same read-out and setting: with `C[N+](C)(C)CC(=O)N/N=C/c1oc(-c2c(O)ccc3ccccc23)c(-c2c(O)ccc3ccccc23)c1[N+](=O)[O-]` the figure was 37.2 µM.
As for `COC(=O)C1(CCC(C)=O)CCCCCC1=O` (stereo not drawn), the TGI is over 100 µM.
Same read-out and setting: with `CCc1n[nH]c(=O)n1/N=C/c1c(O)ccc2ccccc12` the figure was over 100 µM; with `CC(=O)OC1COC(n2c(O)c(N=NC(N)=S)c3cc(Br)ccc32)C(OC(C)=O)C1OC(C)=O` (stereo not drawn), over 100 µM; with `O=C(CSc1nnc(-c2ccc(N=Cc3ccc(Cl)cc3)cc2)o1)Nc1ccccc1[N+](=O)[O-]`, over 100 µM.

Another test has as its system SF-295 CNS. Briefly: DTP human tumour cell line panel, 48 h.
On to `O=c1[nH]c2cc([N+](=O)[O-])ccc2nc1/C(=N/Nc1ccccc1)C(O)c1ccccc1Cl` (stereo not drawn), for which the TGI was over 100 µM.
On the same count and under the same terms, the same measure for `C=Cc1ccc(C)[n+](C[Si](C)(C)O[Si](C)(C)C)c1`: over 100 µM; for `C[C@]12CCC(=O)C=C1CC[C@@H]1[C@@H]2CC[C@]2(C)C(=O)NC(=O)C[C@@H]12`: over 100 µM.
On the same count and under the same terms, with `COc1cc2c(oc(=O)c3c4oc([Si](C)(C)C)cc4cc(OC)c23)c2cccc(OCc3ccccc3)c12` the figure was 50.9 µM; with `CN(C)Nc1cc(=O)[nH]c(=O)[nH]1`, over 100 µM; with `O=C(c1cccs1)N(C(=S)N1CCN(c2ccccn2)CC1)c1ccccc1`, over 100 µM.
The same measure, in the same setting: the same measure for `CNS(=O)(=O)NN(C)S(=O)(=O)c1ccccc1`: over 100 µM; for `O=[N+]([O-])/C(C(Cl)=C(Cl)Cl)=C(\N1CCOCC1)n1nnc2ccccc21`: 34.9 µM.
In turn, `CC(=O)OCC1=C(CCC#N)N2C(=O)C(NC(=O)Cc3cccs3)C2S(=O)C1` (stereo not drawn) showed a TGI of over 100 µM.
As for `O=c1c2c(oc3ccccc13)-c1ccccc1OC2`, the TGI is over 100 µM.
The compound `CCSc1[nH]c(NC(=S)NC(=O)c2ccccc2Cl)c(C(N)=O)c1C(N)=O` returned a concentration for total growth inhibition (TGI) of over 10 µM.
`CCCCNc1nc(C#N)c(N)s1` came in with a TGI of over 100 µM.
In turn, `Cn1cc2ccccc2c1-c1nc(F)nc(F)n1` gave a TGI of over 100 µM.
`COC(=O)N/N=C(\Cc1ccccc1)CN(C)C` gave a total growth inhibition concentration (TGI) of over 100 µM.
Compound `CC1=NN(C(=O)c2ccccc2O)C(=O)/C1=C/c1ccco1` came in with a TGI of over 88.3 µM.
Still for that read-out and setting: with `COc1ccc2c3c1O[C@]1(C)C34CCN(C)C(C2)C42C=C[C@@]1(OC)c1c(O)ccc(O)c12` the figure was over 100 µM.
The compound `C[N+](C)(C)CC(=O)N/N=C/c1oc(-c2c(O)ccc3ccccc23)c(-c2c(O)ccc3ccccc23)c1[N+](=O)[O-]` returned a total growth inhibition concentration (TGI) of 47.4 µM.
Same read-out and setting: with `COC(=O)C1(CCC(C)=O)CCCCCC1=O` (stereo not drawn) the figure was over 100 µM.
Same read-out and setting: with `CCc1n[nH]c(=O)n1/N=C/c1c(O)ccc2ccccc12` the figure was over 100 µM; with `CC(=O)OC1COC(n2c(O)c(N=NC(N)=S)c3cc(Br)ccc32)C(OC(C)=O)C1OC(C)=O` (stereo not drawn), over 100 µM; with `O=C(CSc1nnc(-c2ccc(N=Cc3ccc(Cl)cc3)cc2)o1)Nc1ccccc1[N+](=O)[O-]`, over 100 µM.

For a further test, the system named is HT29 colon. Briefly: DTP human tumour cell line panel, 48 h.
With `O=c1[nH]c2cc([N+](=O)[O-])ccc2nc1/C(=N/Nc1ccccc1)C(O)c1ccccc1Cl` (stereo not drawn), the TGI was over 100 µM.
On the same count and under the same terms, with `C=Cc1ccc(C)[n+](C[Si](C)(C)O[Si](C)(C)C)c1` the figure was over 100 µM; with `C[C@]12CCC(=O)C=C1CC[C@@H]1[C@@H]2CC[C@]2(C)C(=O)NC(=O)C[C@@H]12`, over 100 µM; with `COc1cc2c(oc(=O)c3c4oc([Si](C)(C)C)cc4cc(OC)c23)c2cccc(OCc3ccccc3)c12`, over 100 µM.
On to `CN(C)Nc1cc(=O)[nH]c(=O)[nH]1`, for which the concentration for total growth inhibition (TGI) is over 100 µM.
The compound `O=C(c1cccs1)N(C(=S)N1CCN(c2ccccn2)CC1)c1ccccc1` came in with a total growth inhibition concentration (TGI) of over 100 µM.
`CNS(=O)(=O)NN(C)S(=O)(=O)c1ccccc1` registered a concentration for total growth inhibition (TGI) of over 100 µM.
Same read-out and setting: the same measure for `CC(=O)OCC1=C(CCC#N)N2C(=O)C(NC(=O)Cc3cccs3)C2S(=O)C1` (stereo not drawn): over 100 µM.
As for `O=c1c2c(oc3ccccc13)-c1ccccc1OC2`, the TGI was over 100 µM.
Compound `CCSc1[nH]c(NC(=S)NC(=O)c2ccccc2Cl)c(C(N)=O)c1C(N)=O` displayed a concentration for total growth inhibition (TGI) of over 10 µM.
`CCCCNc1nc(C#N)c(N)s1` registered a total growth inhibition concentration (TGI) of over 100 µM.
Consider `Cn1cc2ccccc2c1-c1nc(F)nc(F)n1`, for which the TGI is over 100 µM.
Still for that read-out and setting: with `COC(=O)N/N=C(\Cc1ccccc1)CN(C)C` the figure was over 100 µM.
Still for that read-out and setting: with `CC1=NN(C(=O)c2ccccc2O)C(=O)/C1=C/c1ccco1` the figure was over 100 µM.
On the same count and under the same terms, the same measure for `COc1ccc2c3c1O[C@]1(C)C34CCN(C)C(C2)C42C=C[C@@]1(OC)c1c(O)ccc(O)c12`: over 100 µM; for `C[N+](C)(C)CC(=O)N/N=C/c1oc(-c2c(O)ccc3ccccc23)c(-c2c(O)ccc3ccccc23)c1[N+](=O)[O-]`: 38.5 µM; for `COC(=O)C1(CCC(C)=O)CCCCCC1=O` (stereo not drawn): over 100 µM.
Regarding `CC(=O)OC1COC(n2c(O)c(N=NC(N)=S)c3cc(Br)ccc32)C(OC(C)=O)C1OC(C)=O` (stereo not drawn), the TGI is over 100 µM.
Compound `O=C(CSc1nnc(-c2ccc(N=Cc3ccc(Cl)cc3)cc2)o1)Nc1ccccc1[N+](=O)[O-]` came in with a TGI of over 100 µM.

A further test relates to HCC-2998 colon. As to the kind of experiment: DTP human tumour cell line panel, 48 h.
`O=c1[nH]c2cc([N+](=O)[O-])ccc2nc1/C(=N/Nc1ccccc1)C(O)c1ccccc1Cl` (stereo not drawn): the TGI was determined as 64.5 µM.
Same read-out and setting: with `C=Cc1ccc(C)[n+](C[Si](C)(C)O[Si](C)(C)C)c1` the figure was over 100 µM.
Same read-out and setting: with `C[C@]12CCC(=O)C=C1CC[C@@H]1[C@@H]2CC[C@]2(C)C(=O)NC(=O)C[C@@H]12` the figure was over 100 µM; with `COc1cc2c(oc(=O)c3c4oc([Si](C)(C)C)cc4cc(OC)c23)c2cccc(OCc3ccccc3)c12`, over 100 µM.
The same measure, in the same setting: with `CN(C)Nc1cc(=O)[nH]c(=O)[nH]1` the figure was over 100 µM; with `CNS(=O)(=O)NN(C)S(=O)(=O)c1ccccc1`, over 100 µM.
The compound `CC(=O)OCC1=C(CCC#N)N2C(=O)C(NC(=O)Cc3cccs3)C2S(=O)C1` (stereo not drawn) returned a TGI of over 100 µM.
Compound `O=c1c2c(oc3ccccc13)-c1ccccc1OC2` registered a total growth inhibition concentration (TGI) of over 100 µM.
As to `CCSc1[nH]c(NC(=S)NC(=O)c2ccccc2Cl)c(C(N)=O)c1C(N)=O`, the TGI is over 10 µM.
Take `CCCCNc1nc(C#N)c(N)s1`: the total growth inhibition concentration (TGI) was over 100 µM.
Regarding `Cn1cc2ccccc2c1-c1nc(F)nc(F)n1`, the concentration for total growth inhibition (TGI) was over 100 µM.
`COC(=O)N/N=C(\Cc1ccccc1)CN(C)C` came in with a concentration for total growth inhibition (TGI) of over 100 µM.
The same measure, in the same setting: the same measure for `CC1=NN(C(=O)c2ccccc2O)C(=O)/C1=C/c1ccco1`: over 100 µM; for `COc1ccc2c3c1O[C@]1(C)C34CCN(C)C(C2)C42C=C[C@@]1(OC)c1c(O)ccc(O)c12`: over 100 µM.
On the same count and under the same terms, the same measure for `C[N+](C)(C)CC(=O)N/N=C/c1oc(-c2c(O)ccc3ccccc23)c(-c2c(O)ccc3ccccc23)c1[N+](=O)[O-]`: 34.3 µM.
Still for that read-out and setting: the same measure for `COC(=O)C1(CCC(C)=O)CCCCCC1=O` (stereo not drawn): over 100 µM; for `CCc1n[nH]c(=O)n1/N=C/c1c(O)ccc2ccccc12`: over 100 µM.
For `CC(=O)OC1COC(n2c(O)c(N=NC(N)=S)c3cc(Br)ccc32)C(OC(C)=O)C1OC(C)=O` (stereo not drawn), the TGI is over 100 µM.
